Results reported in patent publication EP4786487A1, “PEPTIDE” (Peptidream Inc, priority 2023, dated 2025).
Starred links: 1 amine or outer side, 2 acyl side, 3 side chain; linkers in the order of their positions; H or OH if unused. Positions of bridges follow the written chain, without caps; N, C: chain ends. Non-standard residues stand in square brackets, D forms with d. Residues, ends and D or L forms follow the SMILES beside them. *: point of attachment. Phe(3-OCH2COOH) = N[C@@H](Cc1cccc(OCC(=O)O)c1)C(=O)O; X15 = O=C([C@H](Cc1ccc(-c2ccccn2)cc1)N[*:1])[*:2]; Phe(4-CONH2) = NC(=O)c1ccc(C[C@H](N)C(=O)O)cc1; Phe(4-COOH) = N[C@@H](Cc1ccc(C(=O)O)cc1)C(=O)O; X14 = CCc1cccc(C[C@@H](C(=O)[*:2])N(C)[*:1])c1; Trp(7-aza) = N[C@@H](Cc1c[nH]c2ncccc12)C(=O)O; Tyr(Ph) = N[C@@H](Cc1ccc(Oc2ccccc2)cc1)C(=O)O; NMePhe(3-Me) = CN[C@@H](Cc1cccc(C)c1)C(=O)O; Bip = N[C@@H](Cc1ccc(-c2ccccc2)cc1)C(=O)O; Phe(3-OMe) = COc1cccc(C[C@H](N)C(=O)O)c1; Gly(N(CH2)3COOH) = O=C(O)CCCNCC(=O)O; NMeY = CN[C@@H](Cc1ccc(O)cc1)C(=O)O; NMeF = CN[C@@H](Cc1ccccc1)C(=O)O; 3Pal = N[C@@H](Cc1cccnc1)C(=O)O; 4Pal = N[C@@H](Cc1ccncc1)C(=O)O; Ahp(2) = CCCCC[C@H](N)C(=O)O; Carboxymethyl = O=C(O)C*; NMeA = CN[C@@H](C)C(=O)O; Sar = CNCC(=O)O

Experiments:
Myostatin = target: T1, Myostatin (Homo sapiens, UniProt O14793); experiment: HepG2 reporter gene assay, Evaluation Procedure (2): 2-concentrations assay, myostatin inhibition; format: cell-based; conditions: Myostatin 10 ng/mL, HepG2; for inhibition at 0.03 µM: peptide 30nM, read-out: Myostatin Inhibition 30nM; for inhibition at 0.1 µM: peptide 100nM, read-out: Myostatin Inhibition 100nM
T1 construct: active myostatin (also called mature myostatin) is a homodimer consisting of two C-terminal growth factor domains; purchased R&D systems 788-G8/CF
T1 sequence (O14793 267-375): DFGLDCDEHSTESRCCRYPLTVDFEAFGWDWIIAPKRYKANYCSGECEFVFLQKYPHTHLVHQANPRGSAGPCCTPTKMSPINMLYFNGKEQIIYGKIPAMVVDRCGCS
Method in brief: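 HepG2 cells (HB-8065, ATCC) carrying the transfected pGL3(CAGA)12-luc reporter plasmid were treated with myostatin (788-G8/CF, R&D systems) at a final concentration of 10 ng/mL plus peptide and incubated at 37°C, 5% CO2 for 20 to 24 hours. Luminescence was read after adding PBS mixed 1:1 with One-Glo substrate, and inhibition rate was calculated.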

GDF-11 = target: T2, GDF-11 (Homo sapiens, UniProt O95390); experiment: HepG2 reporter gene assay, Evaluation Procedure (2): 2-concentrations assay, GDF-11 inhibition; format: cell-based; conditions: GDF-11 10 ng/mL; for inhibition at 0.03 µM: HepG2, peptide 30nM, read-out: GDF11 Inhibition 30nM; for inhibition at 0.1 µM: HepG2, peptide 100nM, read-out: GDF11 Inhibition 100nM
T2 construct: purchased R&D systems 1958-GD-G8/CF
T2 sequence (O95390 299-407): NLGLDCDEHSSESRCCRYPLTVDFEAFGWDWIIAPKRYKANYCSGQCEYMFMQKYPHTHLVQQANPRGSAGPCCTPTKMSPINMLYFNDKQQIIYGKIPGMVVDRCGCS
Method in brief: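 HepG2 cells carrying the transfected pGL3(CAGA)12-luc reporter, a pGL3 vector with luciferase placed downstream of 12 CAGA repeats, were stimulated with GDF-11 at a final 10 ng/mL together with test peptide. Blank wells received no GDF-11 and no peptide. Plates were incubated 20 to 24 hours at 37°C with 5% CO2. Luminescence from One-Glo substrate was read to calculate percent inhibition.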

SMILES	inhibition at 0.03 µM (Myostatin) [%]	inhibition at 0.1 µM (Myostatin) [%]	inhibition at 0.03 µM (GDF-11) [%]	inhibition at 0.1 µM (GDF-11) [%]
CC[C@H](C)[C@@H]1NC(=O)[C@H](Cc2ccccc2)N(C)C(=O)[C@H](Cc2ccc(O)cc2)NC(=O)[C@H](Cc2c[nH]c3ncccc23)NC(=O)[C@H](CCC(=O)O)NC(=O)[C@H](C)NC(=O)CSC[C@H](C(=O)N[C@H](CO)C(=O)N[C@H](CO)C(=O)N[C@H](CO)C(=O)N[C@H](CCCCN)C(=O)O)NC(=O)[C@H](Cc2ccccc2)N(C)C(=O)[C@H](C)N(C)C(=O)[C@H](CC(C)C)NC(=O)[C@H](Cc2ccccc2)N(C)C(=O)[C@H](CCCNC(=N)N)NC(=O)[C@H](Cc2ccc(C(=O)O)cc2)NC(=O)[C@H](Cc2ccccc2)NC(=O)CN(C)C1=O [Myostatin_99_v39] ({CH2CO}-AE[Trp(7-aza)]Y[NMeF]I[Sar]F[Phe(4-COOH)]R[NMeF]L[NMeA][NMeF][dC][dS][dS][dS][dK]-OH; thioether N-15)	39	79	0	11
CC[C@H](C)[C@@H]1NC(=O)[C@H](Cc2ccccc2)N(C)C(=O)[C@H](Cc2ccc(O)cc2)NC(=O)[C@H](Cc2c[nH]c3ncccc23)NC(=O)[C@H](CCC(=O)O)NC(=O)[C@H](C)NC(=O)CSC[C@H](C(=O)N[C@H](CO)C(=O)N[C@H](CO)C(=O)N[C@H](CO)C(=O)N[C@H](CCCCN)C(=O)O)NC(=O)[C@H](Cc2ccccc2)N(C)C(=O)[C@H](C)N(C)C(=O)[C@H](CC(C)C)NC(=O)[C@H](Cc2ccccc2)N(C)C(=O)[C@H](CCCNC(=N)N)NC(=O)[C@H](Cc2ccc(C(=O)O)cc2)NC(=O)[C@H](Cc2ccncc2)NC(=O)CN(C)C1=O [Myostatin_99_v40] ({CH2CO}-AE[Trp(7-aza)]Y[NMeF]I[Sar][4Pal][Phe(4-COOH)]R[NMeF]L[NMeA][NMeF][dC][dS][dS][dS][dK]-OH; thioether N-15)	39	67	0	0
CC[C@H](C)[C@@H]1NC(=O)[C@H](Cc2ccccc2)N(C)C(=O)[C@H](Cc2ccc(Oc3ccccc3)cc2)NC(=O)[C@H](Cc2ccc(-c3ccccn3)cc2)NC(=O)[C@H](C)NC(=O)CN(CCCC(=O)O)C(=O)CSC[C@H](C(=O)O)NC(=O)[C@H](Cc2ccccc2)N(C)C(=O)[C@H](C)N(C)C(=O)[C@H](CC(C)C)NC(=O)[C@H](Cc2ccccc2)N(C)C(=O)[C@H](CCCNC(=N)N)NC(=O)[C@H](Cc2ccc(OCC(=O)O)cc2)NC(=O)[C@H](Cc2ccccc2)NC(=O)CN(C)C1=O [Myostatin_99_v60] ({CH2CO}-[Gly(N(CH2)3COOH)]A[X15][Tyr(Ph)][NMeF]I[Sar]FY(Carboxymethyl)R[NMeF]L[NMeA][NMeF][dC]-OH; thioether N-15)	25	51	7	5
CC[C@H](C)[C@@H]1NC(=O)[C@H](Cc2ccccc2)N(C)C(=O)[C@H](Cc2ccc(O)cc2)NC(=O)[C@H](Cc2c[nH]c3ncccc23)NC(=O)[C@H](C)NC(=O)CN(CCCC(=O)O)C(=O)CSC[C@H](C(=O)O)NC(=O)[C@H](Cc2ccccc2)N(C)C(=O)[C@H](C)N(C)C(=O)[C@H](CC(C)C)NC(=O)[C@H](Cc2ccccc2)N(C)C(=O)[C@H](CCCNC(=N)N)NC(=O)[C@H](Cc2ccc(OCC(=O)O)cc2)NC(=O)[C@H](Cc2cccc(OC)c2)NC(=O)[C@H](C)N(C)C1=O [Myostatin_99_v127] ({CH2CO}-[Gly(N(CH2)3COOH)]A[Trp(7-aza)]Y[NMeF]I[NMeA][Phe(3-OMe)]Y(Carboxymethyl)R[NMeF]L[NMeA][NMeF][dC]-OH; thioether N-15)	31	57	0	0
CCCCC[C@@H]1NC(=O)[C@H](Cc2ccccc2)N(C)C(=O)[C@H](CCCNC(=N)N)NC(=O)[C@H](Cc2cccnc2)NC(=O)[C@H](Cc2cccc(OCC(=O)O)c2)NC(=O)CN(C)C(=O)[C@H]([C@@H](C)CC)NC(=O)[C@H](Cc2ccccc2)N(C)C(=O)[C@H](Cc2ccc(O)cc2)NC(=O)[C@H](Cc2c[nH]c3ccccc23)NC(=O)[C@H](C)NC(=O)[C@H](C)NC(=O)CSC[C@H](C(=O)O)NC(=O)[C@H](Cc2ccccc2)N(C)C(=O)[C@H](C)N(C)C1=O [Myostatin_99_v205] ({CH2CO}-AAWY[NMeF]I[Sar][Phe(3-OCH2COOH)][3Pal]R[NMeF][Ahp(2)][NMeA][NMeF][dC]-OH; thioether N-15)	37	69	6	1
CCCCC[C@@H]1NC(=O)[C@H](Cc2ccccc2)N(C)C(=O)[C@H](CCCNC(=N)N)NC(=O)[C@H](Cc2ccc(C(=O)O)cc2)NC(=O)[C@H](Cc2cccc(OCC(=O)O)c2)NC(=O)CN(C)C(=O)[C@H]([C@@H](C)CC)NC(=O)[C@H](Cc2ccccc2)N(C)C(=O)[C@H](Cc2ccc(O)cc2)NC(=O)[C@H](Cc2c[nH]c3ccccc23)NC(=O)[C@H](C)NC(=O)[C@H](C)NC(=O)CSC[C@H](C(N)=O)NC(=O)[C@H](Cc2ccccc2)N(C)C(=O)[C@H](C)N(C)C1=O [Myostatin_99_v206] ({CH2CO}-AAWY[NMeF]I[Sar][Phe(3-OCH2COOH)][Phe(4-COOH)]R[NMeF][Ahp(2)][NMeA][NMeF][dC]-NH2; thioether N-15)	88	97	0	0

More lines, now with the values ahead:

inhibition at 0.03 µM (Myostatin) [%]	inhibition at 0.1 µM (Myostatin) [%]	inhibition at 0.03 µM (GDF-11) [%]	inhibition at 0.1 µM (GDF-11) [%]	SMILES
60	81	0	0	CC[C@H](C)[C@@H]1NC(=O)[C@H](Cc2ccccc2)N(C)C(=O)[C@H](Cc2ccc(O)cc2)NC(=O)[C@H](Cc2ccc(-c3ccccc3)cc2)NC(=O)[C@H](C)NC(=O)CN(CCCC(=O)O)C(=O)CSC[C@H](C(=O)O)NC(=O)[C@H](Cc2ccccc2)N(C)C(=O)[C@H](C)N(C)C(=O)[C@H](CC(C)C)NC(=O)[C@H](Cc2ccccc2)N(C)C(=O)[C@H](CCCNC(=N)N)NC(=O)[C@H](Cc2ccc(C(N)=O)cc2)NC(=O)[C@H](Cc2ccc(C(=O)O)cc2)NC(=O)[C@H](C)N(C)C1=O [Myostatin_99_v102] ({CH2CO}-[Gly(N(CH2)3COOH)]A[Bip]Y[NMeF]I[NMeA][Phe(4-COOH)][Phe(4-CONH2)]R[NMeF]L[NMeA][NMeF][dC]-OH; thioether N-15)
35	70	0	0	CCc1cccc(C[C@H]2C(=O)N[C@@H](C(=O)O)CSCC(=O)N(CCCC(=O)O)CC(=O)N[C@@H](C)C(=O)N[C@@H](Cc3ccc(-c4ccccc4)cc3)C(=O)N[C@@H](Cc3ccc(O)cc3)C(=O)N(C)[C@@H](Cc3ccc(O)cc3)C(=O)N[C@@H]([C@@H](C)CC)C(=O)N(C)CC(=O)N[C@@H](Cc3cccc(OCC(=O)O)c3)C(=O)N[C@@H](Cc3ccc(C(=O)O)cc3)C(=O)N[C@@H](CCCNC(=N)N)C(=O)N(C)[C@@H](Cc3ccccc3)C(=O)N[C@@H](CC(C)C)C(=O)N(C)[C@@H](C)C(=O)N2C)c1 [Myostatin_99_v113] ({CH2CO}-[Gly(N(CH2)3COOH)]A[Bip]Y[NMeY]I[Sar][Phe(3-OCH2COOH)][Phe(4-COOH)]R[NMeF]L[NMeA][X14][dC]-OH; thioether N-15)
46	70	0	0	CC[C@H](C)[C@@H]1NC(=O)[C@H](Cc2cccc(C)c2)N(C)C(=O)[C@H](Cc2ccc(O)cc2)NC(=O)[C@H](Cc2ccc(-c3ccccc3)cc2)NC(=O)[C@H](C)NC(=O)CN(CCCC(=O)O)C(=O)CSC[C@H](C(=O)O)NC(=O)[C@H](Cc2ccccc2)N(C)C(=O)[C@H](C)N(C)C(=O)[C@H](CC(C)C)NC(=O)[C@H](Cc2ccccc2)N(C)C(=O)[C@H](CCCNC(=N)N)NC(=O)[C@H](Cc2ccc(C(=O)O)cc2)NC(=O)[C@H](Cc2cccc(OCC(=O)O)c2)NC(=O)CN(C)C1=O [Myostatin_99_v119] ({CH2CO}-[Gly(N(CH2)3COOH)]A[Bip]Y[NMePhe(3-Me)]I[Sar][Phe(3-OCH2COOH)][Phe(4-COOH)]R[NMeF]L[NMeA][NMeF][dC]-OH; thioether N-15)
28	68	0	0	CC[C@H](C)[C@@H]1NC(=O)[C@H](Cc2ccccc2)N(C)C(=O)[C@H](Cc2ccc(O)cc2)NC(=O)[C@H](Cc2c[nH]c3ccccc23)NC(=O)[C@H](C)NC(=O)CN(CCCC(=O)O)C(=O)CSC[C@H](C(=O)O)NC(=O)[C@H](Cc2ccccc2)N(C)C(=O)[C@H](C)N(C)C(=O)[C@H](CC(C)C)NC(=O)[C@H](Cc2ccccc2)N(C)C(=O)[C@H](CCCNC(=N)N)NC(=O)[C@H](Cc2ccc(OCC(=O)O)cc2)NC(=O)[C@H](Cc2cccc(OC)c2)NC(=O)[C@H](C)N(C)C1=O [Myostatin_99_v126] ({CH2CO}-[Gly(N(CH2)3COOH)]AWY[NMeF]I[NMeA][Phe(3-OMe)]Y(Carboxymethyl)R[NMeF]L[NMeA][NMeF][dC]-OH; thioether N-15)
